Results taken from PubChem BioAssay (NCI).
“And” between values parts separate entries of the source, which are not always exact repeats. Equal values may be shown once.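 1) Cells in 96-well plates. 2) Compound, 48 h, 5 concentrations. 3) Linear interpolation between surrounding doses. 4) Unreached endpoint = highest concentration. Abbreviation: GI50, concentration required for 50% inhibition of growth. Definition used: TGI = concentration required for complete inhibition of growth.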

How the values were obtained:
Experiment in all cases: NCI anticancer screen, dose series, 48 h
[1] = tested on: A549 NSCLC
[2] = tested on: DU-145 prostate
[3] = tested on: HOP-92 NSCLC
[4] = tested on: HS 578T breast
[5] = tested on: KM12 colon
[6] = tested on: M14 melanoma
[7] = tested on: MDA-MB-231 breast
[8] = tested on: PC-3 prostate
[9] = tested on: SK-MEL-5 melanoma
[10] = tested on: UACC-62 melanoma

Structure (SMILES)	TGI [1]	TGI [2]	TGI [3]	TGI [4]	TGI [5]	TGI [6]	TGI [7]	TGI [8]	TGI [9]	TGI [10]	GI50 [1]	GI50 [2]	GI50 [3]	GI50 [4]	GI50 [5]	GI50 [6]	GI50 [7]	GI50 [8]	GI50 [9]	GI50 [10]
COC(=O)[C@]12CC[C@H]3CN(S(=O)(=O)c4ccc(C)cc4)[C@H]([C@H]31)[C@H](c1ccco1)N2S(=O)(=O)c1ccc(C)cc1	> 100 µM	> 100 µM	62.8 µM	> 100 µM	> 100 µM	92.4 µM	> 100 µM	> 100 µM	> 100 µM	69.3 µM	–	–	–	–	–	–	–	–	–	–
Cc1ccc(C(=O)NC2C(=O)NC(C(C)C)C(=O)N3CCCC3C(=O)N(C)CC(=O)N(C)C(C(C)C)C(=O)OC2C)c2c1Oc1c(c(C(=O)NC3C(=O)NC(C(C)C)C(=O)N4CCCC4C(=O)N(C)CC(=O)N(C)C(C(C)C)C(=O)OC3C)c3nc(-c4ccccc4)c(=O)oc3c1C)N2 (centres undefined)	> 100 µM	–	0.156 µM and 0.0741 µM	0.00548 µM	0.00317 µM	–	0.221 µM and 0.129 µM	0.544 µM and 0.129 µM	0.0149 µM	–	–	–	–	–	–	–	–	–	–	–
CCOC(=O)N1c2ccccc2N(C(=O)OCC)C1CC(=O)/C=C/c1ccccc1	18.1 µM	9.11 µM	6.16 µM	> 19.9 µM	9.51 µM	19.3 µM	> 100 µM	19.8 µM	8.92 µM	10.2 µM	–	–	–	–	–	–	–	–	–	–
Cc1cn(CC(=S)NCCc2c[nH]c3ccccc23)c(=O)[nH]c1=O	> 100 µM	> 100 µM	> 100 µM	> 100 µM	> 100 µM	> 100 µM	> 100 µM	> 100 µM	> 100 µM	> 100 µM	–	–	–	–	–	–	–	–	–	–
C[C@@]12CC[C@@H](O)C[C@@H]1CC[C@H]1[C@H]2CC[C@@]2(C)[C@H](c3ccc(=O)oc3)CC[C@@]12O	–	0.0168 µM	0.0571 µM	0.0351 µM	0.153 µM	0.0564 µM	0.116 µM	0.0209 µM	0.0141 µM	0.0435 µM	< 0.01 µM	< 0.01 µM	< 0.01 µM	< 0.01 µM	< 0.0123 µM	< 0.01 µM	0.0192 µM	< 0.01 µM	< 0.01 µM	< 0.0135 µM
O=C(O)C1=C(CO)Oc2cc3c(cc2C1c1ccc2c(c1)OCO2)OCO3 (centres undefined)	> 100 µM	–	> 100 µM	–	–	> 100 µM	–	–	> 100 µM	> 100 µM	–	–	–	–	–	–	–	–	–	–
C=C(C)[C@@H]1CC[C@]2(C(=O)O)CC[C@]3(C)[C@H](CC[C@@H]4[C@@]5(C)C/C(=C/c6ccco6)C(=O)C(C)(C)[C@@H]5CC[C@]43C)[C@@H]12	> 100 µM	12.2 µM	–	> 100 µM	–	–	–	–	–	–	2.12 µM	3.07 µM	–	6.66 µM	–	–	–	–	–	–
c1ccc(-c2cc3nc4ccccc4nc3cc(-c3ccccc3)[nH][nH]2)cc1	> 100 µM	> 100 µM	> 100 µM	> 100 µM	> 100 µM	> 100 µM	> 100 µM	> 100 µM	> 100 µM	> 100 µM	–	–	–	–	–	–	–	–	–	–
C/C=C\C1OC1(C)c1cc(=O)c2c(C)cc3c(c2o1)C(=O)c1c(O)c(C2CC(C)(N(C)C)C(OC(C)=O)C(C)O2)cc(C2CC(N(C)C)C(O)C(C)O2)c1C3=O (centres undefined)	0.482 µM	0.0912 µM	0.0251 µM	0.0223 µM	0.0109 µM	0.00653 µM	0.0285 µM	0.0131 µM	0.00936 µM	0.00504 µM	–	–	–	–	–	–	–	–	–	–
COc1cc2cc(C(=O)N3CC(CCl)c4ccc(NO)cc43)[nH]c2c(OC)c1OC (centres undefined)	> 100 µM	> 31 µM	–	0.954 µM	16.3 µM	0.768 µM	–	2.05 µM	0.342 µM	0.372 µM	–	–	–	–	–	–	–	–	–	–
O=C1c2cc3c(cc2[C@@H]2C(O)[C@H]4O[C@H]4C4CCN1C42)OCO3 (some centres undefined)	> 37.5 µM	–	> 37.5 µM	–	> 37.5 µM	> 37.5 µM	–	–	–	> 37.5 µM	–	–	–	–	–	–	–	–	–	–
COc1ccc2c(O)c1-c1c(OC)ccc(c1O)SSc1ccc(OC)c(c1O)-c1c(OC)ccc(c1O)SS2	> 100 µM	> 100 µM	90.1 µM	> 100 µM	> 100 µM	> 100 µM	> 100 µM	26.4 µM	> 100 µM	–	–	–	–	–	–	–	–	–	–	–
Nc1c(S(=O)(=O)O)cc(S(=O)(=O)O)c2ccc(N=Nc3ccccc3)c(O)c12	> 100 µM	> 100 µM	> 100 µM	> 100 µM	> 100 µM	> 100 µM	> 100 µM	> 100 µM	> 100 µM	> 100 µM	–	–	–	–	–	–	–	–	–	–
Cc1nn(CNc2ccc(F)c(Cl)c2)c(=S)n1/N=C/c1ccc(-c2ccc(Cl)cc2Cl)o1	–	30.7 µM	–	52.9 µM	55.7 µM	36.9 µM	34.9 µM	30.9 µM	35.1 µM	–	–	–	–	–	–	–	–	–	–	–
O=C(c1ccccc1)c1ccc(N2C(=O)/C(=C/c3cccc(Oc4ccccc4)c3)N=C2c2ccccc2)c(N2C(=O)/C(=C/c3cccc(Oc4ccccc4)c3)N=C2c2ccccc2)c1	> 100 µM	> 100 µM	> 100 µM	88.5 µM	> 100 µM	> 100 µM	> 100 µM	> 100 µM	30.7 µM	24.5 µM	–	–	–	–	–	–	–	–	–	–
CC(C)=CCC/C(C)=C/Cc1c2c(c3oc(-c4ccc(O)c(O)c4)c(O)c(=O)c3c1O)C=CC(C)(C)O2	12.4 µM	8.59 µM	–	18.7 µM	9.89 µM	9.42 µM	14.5 µM	12.5 µM	9.86 µM	12.4 µM	–	–	–	–	–	–	–	–	–	–

Structure (SMILES)	TGI [1]	TGI [2]	TGI [3]	TGI [4]	TGI [5]	TGI [6]	TGI [7]	TGI [8]	TGI [9]	TGI [10]	GI50 [1]	GI50 [2]	GI50 [3]	GI50 [4]	GI50 [5]	GI50 [6]	GI50 [7]	GI50 [8]	GI50 [9]	GI50 [10]
CCOC(=O)c1sc2nc(SC)nc3c2c1NC(=O)CN3c1ccc(F)cc1	50.9 µM	97.9 µM	> 100 µM	53.3 µM	> 100 µM	> 100 µM	> 100 µM	37 µM	> 100 µM	> 100 µM	–	–	–	–	–	–	–	–	–	–
CO[P@@]1(=O)O[C@@H](c2ccccc2)[C@H](O)[C@@]1(O)c1ccccc1	> 100 µM	> 100 µM	> 100 µM	> 100 µM	> 100 µM	> 100 µM	> 100 µM	> 100 µM	> 100 µM	> 100 µM	–	–	–	–	–	–	–	–	–	–
CCn1c2ccccc2c2ccc(C3C4C(=O)N(c5cccc6ccccc56)C(=O)C4ON3C(C(N)=O)c3ccccc3)cc21 (centres undefined)	> 25 µM	> 25 µM	> 25 µM	> 25 µM	> 25 µM	> 25 µM	> 25 µM	> 25 µM	> 25 µM	> 25 µM	–	–	–	–	–	–	–	–	–	–
Nc1ccc(Oc2ccc(C34CC5C6CC7(c8ccc(Oc9ccc(N)cc9)cc8)CC5C(C3)C(C7)C6C4)cc2)cc1	> 100 µM	> 100 µM	> 100 µM	> 100 µM	> 100 µM	> 100 µM	> 100 µM	> 100 µM	> 100 µM	> 100 µM	–	–	–	–	–	–	–	–	–	–
CCCCCCC(=O)OC[n+]1ccc(-c2c(COC(=O)NC(C)C)c(COC(=O)NC(C)C)c3n2CCC3)cc1	> 100 µM	> 100 µM	> 100 µM	> 100 µM	> 100 µM	> 100 µM	> 100 µM	> 100 µM	> 100 µM	> 100 µM	–	–	–	–	–	–	–	–	–	–
CCCCC(CC)C(=O)Oc1ccc(C(=O)c2ccccc2)c(O)c1 (centres undefined)	> 100 µM	> 100 µM	59.4 µM	64.9 µM	> 100 µM	> 100 µM	> 100 µM	> 100 µM	> 100 µM	> 100 µM	–	–	–	–	–	–	–	–	–	–
Nc1[nH]c(=O)nc2c1cnn2COCCO	> 100 µM	–	> 100 µM	–	> 100 µM	> 100 µM	–	–	> 100 µM	–	–	–	–	–	–	–	–	–	–	–
CCCCC/C=C\C=C\CCCCCCCCC(=O)OC	> 100 µM	> 100 µM	> 100 µM	> 100 µM	> 100 µM	> 100 µM	> 100 µM	> 100 µM	> 100 µM	–	–	–	–	–	–	–	–	–	–	–
C/C(=C\[Si](C)(C)c1ccco1)C(C)(O)[C@H](C)O (some centres undefined)	> 100 µM	> 100 µM	> 100 µM	> 100 µM	> 100 µM	> 100 µM	> 100 µM	> 100 µM	> 100 µM	> 100 µM	–	–	–	–	–	–	–	–	–	–
CC(C)CC(N)C(=O)NC(CNC(CCC(N)=O)C(=O)NC(CC(C)C)C(=O)NC(CC(C)C)C(=O)O)Cc1ccc2ccccc2c1 (centres undefined)	> 10 µM	> 10 µM	> 10 µM	> 10 µM	> 10 µM	> 10 µM	> 10 µM	> 10 µM	> 10 µM	> 10 µM	–	–	–	–	–	–	–	–	–	–
CC1CC(C)(O)C2C3(C)CCCC2(COC3=O)C12CCC1(CCOC1=O)O2 (centres undefined)	> 250 µM	–	> 250 µM	–	> 250 µM	–	–	–	> 250 µM	> 250 µM	–	–	–	–	–	–	–	–	–	–
[O-]c1c2c(nn1-c1ccc(F)cc1)c1ccccc1c[n+]2Cc1ccccc1	73.1 µM	–	57.9 µM	–	25 µM	15.3 µM	–	–	13.4 µM	14.2 µM	–	–	–	–	–	–	–	–	–	–
CN(C)CCC(=O)[C@@]1(O)CC[C@H]2[C@@H]3CC=C4C[C@@H](O)CC[C@]4(C)[C@H]3CC[C@@]21C	> 86.8 µM	19.9 µM	39.7 µM	51.1 µM	45.3 µM	34.2 µM	32.8 µM	26.2 µM	> 81.8 µM	32.2 µM	–	–	–	–	–	–	–	–	–	–
CCCCCCCCCCCCCCCCCCN(C)CC(COC)OP(=O)([O-])OCC[N+](C)(C)C (centres undefined)	7.69 µM	5.13 µM	3.33 µM	17.8 µM	1.62 µM	15 µM	–	1.47 µM	23.7 µM	14.9 µM	–	–	–	–	–	–	–	–	–	–
CC1(C=O)CC(CCc2ccccc2)NC1Cc1ccc(O)cc1 (centres undefined)	30.1 µM	33.4 µM	30 µM	41.9 µM	37.5 µM	29.7 µM	26.5 µM	26.7 µM	29.4 µM	30.3 µM	–	–	–	–	–	–	–	–	–	–
Cc1csc2nc(-c3cc([N+](=O)[O-])c(Cl)cc3Cl)c(/C=N/N=C(N)N)n12	40.9 µM	32.3 µM	32.1 µM	32.7 µM	32.4 µM	34.3 µM	28 µM	38.9 µM	30.9 µM	27.2 µM	–	–	–	–	–	–	–	–	–	–
